The values that follow come from patent US10442773B2, “Amorphous letermovir and solid pharmaceutical formulations thereof for oral administration” (AICURIS ANTI-INFECTIVE CURES GMBH, priority 2013, dated 2019).

≈ marks a conversion by molar mass, not a printed value. Read-outs that look alike come from different tables or passages of the source. Some results are limits rather than exact numbers.

One data set concerns HCMV isolates. The data set is described as follows: Antiviral activity against HCMV isolates. The data set is classed as cell-based, human cytomegalovirus. The following applies: Human betaherpesvirus 5; HCMV isolates of the respective individual; SD 0.0001 to 0.001. An excerpt:
The term “pharmaceutical activity” of Letermovir denotes the antiviral activity against HCMV isolates of the respective individual, being in the range of EC50±SD of 0.0005 to 0.005±0.0001 to 0.001.

Data set [1] in a line: Long-term stability study of Letermovir precipitate tablets. The data set is classed as physicochemical. As to the method:
Long-term stability studies were conducted with testing of color, dissolution, degradation products and assay at regular intervals to confirm the stability of amorphous Letermovir precipitate tablets.
In addition, disintegration, water content and hardness/breaking load were conducted as informative tests.
Samples of one batch of each dose strength of Letermovir precipitate tablets, packaged in 45 ml HDPE bottles with child-resistant closures were stored at 25° C./60% relative humidity and at 40° C./75% relative humidity. Stability data after 36 months storage were reported.
Additional forced degradation studies were conducted. One batch per dose strength of Letermovir was stored at 60° C. for 3 months. In order to assess the hydrolytic stability, one batch of the 20 mg dose strength was stored with open storage at 40° C./75% relative humidity for 3 months.

Data set [2] is described as follows: Absolute bioavailability, Cohort 1 of a clinical trial (oral vs intravenous). The data set is classed as in vivo. The settings on record: human, plasma; single 30 mg oral dose (amorphous) vs 30 mg intravenous 30 min infusion; based on AUC0-last; 12 healthy female subjects. As to the method: Assessment of absolute bioavailability after oral administration of 30 mg Letermovir in the amorphous state versus a 30 minute intravenous administration of 30 mg Letermovir in 150 ml saline solution 0.9%. Cohort 1 of the trial was conducted in an open-label, randomized (to treatment sequence), single center cross-over design (2 periods) in 12 healthy female subjects. Subjects received a single intravenous dose of 30 mg Letermovir via a 30-minute infusion in one period (“reference”) and a single oral dose of 30 mg Letermovir in the amorphous state in the other period (“test”). In both periods subjects were in-house from Day −1 to Day 4 (72 h after dosing on Day 1). The washout period between the periods (i.e. the dosing) was at least one week. The 30 mg dose in Cohort 1 was evaluated (see FIGS. 7a and 7b). Plasma concentrations of Letermovir were determined using a lower limit of quantification (LLOQ) of 1.00 ng/mL. Pharmacokinetic parameters AUC0-∞, Cmax, F, AUC0-last, tmax, λZ, t1/2z, CL/F, CL, Vd/F, Vd, MRT, AUC0-∞/D, Cmax/D, AUC0-last/D for Cohort 1 were calculated in WinNonlin using the actual sampling times. Descriptive statistics were calculated for the plasma concentrations and for the derived pharmacokinetic parameters. Statistics included sample size (n), mean, standard deviation (SD), percentage of coefficient of variation (% CV), geometric mean, median, minimum, and maximum. […]

Data set [3] in a line: Ionization characteristics (isoelectric point, pKa). The data set is classed as physicochemical. The source says:
The expressions “zwitterionic, zwitterionic properties, and zwitterion” in the context of the present invention for the API Letermovir means that a Letermovir molecule is a neutral molecule having a positive and a negative electrical charge at different locations within the same molecule. Accordingly, the API Letermovir has a charge, which changes with pH when measured in an electric field. […] The net charge is influenced by the pH value. Letermovir has a fixed value of isoelectric point (pI) being the pH value at which the number of cations is equal to that of anions. At this point (pI=5.55) the net electric charge of Letermovir is always zero. The solubility class boundary according to the BCS is based on the highest dose strength of the IR product. By using the BCS approach the equilibrium solubility of amorphous Letermovir under physiological pH conditions is determined. The pH-solubility profile of amorphous Letermovir was determined at 37±1° C. in aqueous media with a pH in the range of 1-7.5. A sufficient number of pH conditions were evaluated to accurately define the pH-solubility profile of amorphous Letermovir. The number of pH conditions for the solubility determination was based on the ionization characteristics of Letermovir. A minimum of three replicate determinations of solubility in each pH condition was conducted.

Data set [4] in a line: pH-solubility profile of amorphous Letermovir (BCS approach). The data set is classed as physicochemical. The settings on record: standard buffer solutions, thermodynamic from solid. As to the method: The inventors conducted a solubility study of amorphous Letermovir to investigate its biopharmaceutical status by standardized measures. The inventors orientated on the guidelines of the established Biopharmaceutics Classification System (BCS). The solubility class boundary according to the BCS is based on the highest dose strength of the IR product. By using the BCS approach the equilibrium solubility of amorphous Letermovir under physiological pH conditions is determined. The pH-solubility profile of amorphous Letermovir was determined at 37±1° C. in aqueous media with a pH in the range of 1-7.5. A sufficient number of pH conditions were evaluated to accurately define the pH-solubility profile of amorphous Letermovir. The number of pH conditions for the solubility determination was based on the ionization characteristics of Letermovir. A minimum of three replicate determinations of solubility in each pH condition was conducted. The highest dose of Letermovir is exemplarily 240 mg. When dissolved in 250 ml this equates to a concentration of 0.96 mg/ml.

As to `COc1cccc(N2CCN(C3=Nc4c(F)cccc4[C@H](CC(=O)O)N3c3cc(C(F)(F)F)ccc3OC)CC2)c1` [Letermovir, (S)-{8-Fluoro-2-[4-(3-methoxyphenyl)-1-piperazinyl]-3-[2-methoxy-5-(trifluoromethyl)phenyl]-3,4-dihydro-4-quinazolinyl}acetic acid], in the data set on HCMV isolates, the EC50 (usually the midpoint of the concentration-response curve) lay within 0.5 to 5 nM. Moreover, the “stability under long-term and accelerated storage conditions” value in data set [1] (25°C/60% relative humidity and 40°C/75% relative humidity, 36 months) was “stable”. In data set [1] (real time data at 25°C/60% RH), this compound showed a shelf-life assigned of 36 months. Besides, in data set [2], the bioavailability (commonly dose-corrected exposure relative to a reference, in per cent) worked out at 76%. Also, the pKa1 in data set [3] is reported as 3.9 (pKa1). Besides, the “isoelectric point (pI)” value in data set [3] (pH at which net electric charge is zero) came to 5.55. Also, the solubility (in general, how much of the substance goes into solution per volume) at 24 h was ≥ 0.4 mg/mL in data set [4] (37 °C, aqueous buffer, pH range 1 to 7.5, summary of Table 3, read-out: solubility of Letermovir over the pH-range of 1 to 7.5); 0.8 mg/mL (≈ 1400 µM) in data set [4] (aqueous buffer, pH 2.9 (pKa1 − 1), 37°C±1°C, standard buffer, stirring 24 hours, read-out: Letermovir solubility); 0.4 mg/mL (≈ 699 µM) in data set [4] (aqueous buffer, pH 3.9 (pKa1), 37°C±1°C, standard buffer, stirring 24 hours, read-out: Letermovir solubility); 0.4 mg/mL in data set [4] (aqueous buffer, pH 4.9 (pKa1 + 1), 37°C±1°C, standard buffer, stirring 24 hours, read-out: Letermovir solubility); > 1 mg/mL in data set [4] (aqueous buffer, pH 7.5, 37°C±1°C, standard buffer, stirring 24 hours, read-out: Letermovir solubility); > 0.9 mg/mL in data set [4] (simulated gastric fluid, pH 1, 37°C±1°C, standard buffer, stirring 24 hours, read-out: Letermovir solubility).
